{"source": "patent US12180187B2", "about": "“1-phenyl-5-azinylpyrazolyl-3-oxyalkyl acids and their use for controlling unwanted plant growth” (BAYER AKTIENGESELLSCHAFT, priority 2019, dated 2024)", "key": {"ALOMY [1]": {"system": "ALOMY", "experiment": "Post-emergence action against ALOMY, 1.28 kg/ha", "assay_type": "in vivo, Alopecurus myosuroides", "conditions": "dosage 1280 g/ha, visual rating about 3 weeks after treatment vs untreated controls", "procedure": "(§1) • a) Seeds of mono- and dicotyledonous weed plants are placed in plastic pots in sandy loam soil (twin sowing with one species each of mono- or dicotyledonous weed plants per pot), covered with soil and cultivated in a greenhouse under controlled growth conditions. 2 to 3 weeks after sowing, the test plants are treated at the one-leaf stage. The compounds of the invention, formulated in the form of wettable powders (WP) or as emulsion concentrates (EC), are applied to the green parts of the plants as aqueous suspension or emulsion with addition of 0.5% additive at a water application rate equivalent to 600 litres per hectare. After the test plants have been kept in the greenhouse under optimum growth conditions for about 3 weeks, the activity of the preparations is rated visually in comparison to untreated controls. For example, 100% activity=the plants have died, 0% activity=like control plants. As shown by the results, compounds of the general formula (I) of the invention, in post-emergence treatment, have very good herbicidal efficacy (90% to 100% herbicidal action) against harmful plants such as Abutilon theophrasti, Digitaria sanguinalis, Echinochloa crus-galli, Matricaria inodora, Poa annua, at an application rate of 1.28 kg of active substance per hectare."}, "ECHCG [2]": {"system": "ECHCG", "experiment": "Post-emergence action against ECHCG, 1.28 kg/ha", "assay_type": "in vivo, Echinochloa crus-galli", "conditions": "dosage 1280 g/ha, visual rating about 3 weeks after treatment vs untreated controls", "procedure": "as §1"}, "MATIN [3]": {"system": "MATIN", "experiment": "Pre-emergence action against MATIN, 1280 g/ha", "assay_type": "in vivo, Tripleurospermum inodorum (Matricaria inodora)", "conditions": "scored visually after about 3 weeks vs untreated controls (100% = plants have died)", "text": "(§2) 1. Pre-Emergence Herbicidal Effect and Crop Plant Compatibility a) Seeds of mono- and dicotyledonous weed plants are placed in plastic pots in sandy loam soil (doubly sown with one species each of mono- or dicotyledonous weed plants per pot) and covered with soil. The compounds of the invention, formulated in the form of wettable powders (WP) or as emulsion concentrates (EC), are then applied onto the surface of the covering soil as aqueous suspension or emulsion with addition of 0.5% additive at a water application rate equivalent to 600 litres per hectare. After the treatment, the pots are placed in a greenhouse and kept under good growth conditions for the trial plants. After about 3 weeks, the effect of the preparations is scored visually in comparison with untreated controls as percentages. For example, 100% activity=the plants have died, 0% activity=like control plants. 1. Pre-Emergence Effectiveness Tables 1 to 12 below show the effects of selected compounds of the general formula (I) according to Tables 1 and 2 on various harmful plants and at an application rate corresponding to 1280 g/ha, which were obtained by the experimental procedure mentioned above."}, "DIGSA": {"system": "DIGSA", "experiment": "Pre-emergence action against DIGSA, 1280 g/ha", "assay_type": "in vivo, Digitaria sanguinalis", "conditions": "visual scoring after about 3 weeks vs untreated controls, 100% = plants have died, 0% = like control plants", "text": "as §2"}, "STEME": {"system": "STEME", "experiment": "Pre-emergence action against STEME, 1280 g/ha", "assay_type": "in vivo, Stellaria media", "conditions": "scored visually after about 3 weeks vs untreated controls (100% = plants have died)", "text": "as §2"}, "LOLRI": {"system": "LOLRI", "experiment": "Pre-emergence action against LOLRI, 1280 g/ha", "assay_type": "in vivo, Lolium rigidum", "conditions": "visual scoring after about 3 weeks vs untreated controls, 100% = plants have died, 0% = like control plants", "text": "as §2"}, "AMARE [4]": {"system": "AMARE", "experiment": "Post-emergence action against AMARE, 1.28 kg/ha", "assay_type": "in vivo, Amaranthus retroflexus", "conditions": "dosage 1280 g/ha, visual rating about 3 weeks after treatment vs untreated controls (100% = plants died)", "procedure": "as §1"}, "ABUTH": {"system": "ABUTH", "experiment": "Post-emergence action against ABUTH, 1.28 kg/ha", "assay_type": "in vivo, Abutilon theophrasti", "conditions": "dosage 1280 g/ha, visual rating about 3 weeks after treatment vs untreated controls (100% = plants died)", "procedure": "as §1"}, "AMARE [5]": {"system": "AMARE", "experiment": "Pre-emergence action against AMARE, 1280 g/ha", "assay_type": "in vivo, Amaranthus retroflexus", "conditions": "scored visually after about 3 weeks vs untreated controls (100% = plants have died)", "text": "as §2"}, "VERPE [6]": {"system": "VERPE", "experiment": "Post-emergence action against VERPE, 1.28 kg/ha", "assay_type": "in vivo, Veronica persica", "conditions": "dosage 1280 g/ha, visual rating about 3 weeks after treatment vs untreated controls (100% = plants died)", "procedure": "as §1"}, "ECHCG [7]": {"system": "ECHCG", "experiment": "Pre-emergence action against ECHCG, 1280 g/ha", "assay_type": "in vivo, Echinochloa crus-galli", "conditions": "visual scoring after about 3 weeks vs untreated controls, 100% = plants have died, 0% = like control plants", "text": "as §2"}, "SETVI [8]": {"system": "SETVI", "experiment": "Pre-emergence action against SETVI, 1280 g/ha", "assay_type": "in vivo, Setaria viridis", "conditions": "visual scoring after about 3 weeks vs untreated controls, 100% = plants have died, 0% = like control plants", "text": "as §2"}, "VERPE [9]": {"system": "VERPE", "experiment": "Pre-emergence action against VERPE, 1280 g/ha", "assay_type": "in vivo, Veronica persica", "conditions": "scored visually after about 3 weeks vs untreated controls (100% = plants have died)", "text": "as §2"}, "POAAN": {"system": "POAAN", "experiment": "Pre-emergence action against POAAN, 1280 g/ha", "assay_type": "in vivo, Poa annua", "conditions": "visual scoring after about 3 weeks vs untreated controls, 100% = plants have died, 0% = like control plants", "text": "as §2"}, "AMARE [10]": {"system": "AMARE", "experiment": "Pre-emergence action at 320 g/ha against AMARE", "assay_type": "in vivo, Amaranthus retroflexus", "conditions": "visual scoring after about 3 weeks vs untreated controls", "text": "(§3) b) Seeds of monocotyledonous and dicotyledonous weed plants and crop plants are placed in plastic or organic planting pots and covered with soil. The compounds of the invention, formulated in the form of wettable powders (WP) or as emulsion concentrates (EC), are then applied onto the surface of the covering soil as aqueous suspension or emulsion with addition of 0.5% additive at a water application rate of 600 l/ha (converted). After the treatment, the pots are placed in a greenhouse and kept under good growth conditions for the trial plants. After about 3 weeks, the effect of the preparations is scored visually in comparison with untreated controls as percentages. For example, 100% activity=the plants have died, 0% activity=like control plants. Tables 13 to 26 below show the effects of selected compounds of the general formula (I) on various harmful plants and at an application rate corresponding to 320 g/ha, which were obtained by the experimental procedure mentioned above."}, "ALOMY [11]": {"system": "ALOMY", "experiment": "Pre-emergence action at 320 g/ha against ALOMY", "assay_type": "in vivo, Alopecurus myosuroides", "conditions": "scored visually after about 3 weeks vs untreated controls (100% = plants have died)", "text": "as §3"}, "POLCO": {"system": "POLCO", "experiment": "Pre-emergence action at 320 g/ha against POLCO", "assay_type": "in vivo, Fallopia convolvulus (Polygonum convolvulus)", "conditions": "visual scoring after about 3 weeks vs untreated controls", "text": "as §3"}, "MATIN [12]": {"system": "MATIN", "experiment": "Pre-emergence action at 320 g/ha against MATIN", "assay_type": "in vivo, Tripleurospermum inodorum (Matricaria inodora)", "conditions": "visual scoring after about 3 weeks vs untreated controls", "text": "as §3"}, "SETVI [13]": {"system": "SETVI", "experiment": "Pre-emergence action at 320 g/ha against SETVI", "assay_type": "in vivo, Setaria viridis", "conditions": "visual scoring after about 3 weeks vs untreated controls", "text": "as §3"}, "VIOTR": {"system": "VIOTR", "experiment": "Pre-emergence action at 320 g/ha against VIOTR", "assay_type": "in vivo, Viola tricolor", "conditions": "dosage 320 g/ha", "text": "as §3"}, "VERPE [14]": {"system": "VERPE", "experiment": "Pre-emergence action at 320 g/ha against VERPE", "assay_type": "in vivo, Veronica persica", "conditions": "visual scoring after about 3 weeks vs untreated controls", "text": "as §3"}}}
{"smiles": "CCOC(=O)COc1nn(-c2ccccc2F)c(-c2cnccn2)c1Br", "note": "[Example I-004]", "values": [{"measurement": "Post-emergence action against ALOMY", "setting": "ALOMY [1]", "result": 100, "unit": "%"}, {"measurement": "Post-emergence action against ECHCG", "setting": "ECHCG [2]", "result": 90, "unit": "%"}, {"measurement": "Pre-emergence action against MATIN", "setting": "MATIN [3]", "result": 90, "unit": "%"}, {"measurement": "Pre-emergence action against DIGSA", "setting": "DIGSA", "result": 90, "unit": "%"}, {"measurement": "Pre-emergence action against STEME", "setting": "STEME", "result": 100, "unit": "%"}, {"measurement": "Pre-emergence action against LOLRI", "setting": "LOLRI", "result": 90, "unit": "%"}, {"measurement": "Post-emergence action against AMARE", "setting": "AMARE [4]", "result": 90, "unit": "%"}, {"measurement": "Post-emergence action against ABUTH", "setting": "ABUTH", "result": 90, "unit": "%"}, {"measurement": "Pre-emergence action against AMARE", "setting": "AMARE [5]", "result": 100, "unit": "%"}, {"measurement": "Post-emergence action against VERPE", "setting": "VERPE [6]", "result": 100, "unit": "%"}, {"measurement": "Pre-emergence action against ECHCG", "setting": "ECHCG [7]", "result": 90, "unit": "%"}, {"measurement": "Pre-emergence action against SETVI", "setting": "SETVI [8]", "result": 100, "unit": "%"}, {"measurement": "Pre-emergence action against VERPE", "setting": "VERPE [9]", "result": 90, "unit": "%"}, {"measurement": "Pre-emergence action against POAAN", "setting": "POAAN", "result": 100, "unit": "%"}]}
{"smiles": "O=C(O)CNC(=O)C(F)Oc1nn(-c2ccccc2F)c(-c2ccc(F)nc2)c1Br", "note": "(stereo not shown) [Example X-012]", "values": [{"measurement": "Pre-emergence action against AMARE in %", "setting": "AMARE [10]", "result": 100, "unit": "%"}, {"measurement": "Pre-emergence action at 320 g/ha against ALOMY in %", "setting": "ALOMY [11]", "result": 90, "unit": "%"}, {"measurement": "Pre-emergence action against POLCO in %", "setting": "POLCO", "result": 90, "unit": "%"}, {"measurement": "Pre-emergence action against MATIN in %", "setting": "MATIN [12]", "result": 90, "unit": "%"}, {"measurement": "Pre-emergence action against SETVI in %", "setting": "SETVI [13]", "result": 90, "unit": "%"}, {"measurement": "Pre-emergence action against VIOTR in %", "setting": "VIOTR", "result": 100, "unit": "%"}]}
{"smiles": "COC(=O)C1CCCN(C(=O)COc2nn(-c3ccccc3F)c(-c3cncc(F)c3)c2Br)C1", "note": "(stereo not shown) [Example X-034]", "values": [{"measurement": "Pre-emergence action against VERPE in %", "setting": "VERPE [14]", "result": 90, "unit": "%"}, {"measurement": "Pre-emergence action against VIOTR in %", "setting": "VIOTR", "result": 90, "unit": "%"}]}
{"smiles": "COC(=O)C1CCN(C(=O)COc2nn(-c3ccccc3F)c(-c3cncc(F)c3)c2Br)C1", "note": "(stereo not shown) [Example X-037]", "values": [{"measurement": "Pre-emergence action against AMARE in %", "setting": "AMARE [10]", "result": 100, "unit": "%"}, {"measurement": "Pre-emergence action against VERPE in %", "setting": "VERPE [14]", "result": 100, "unit": "%"}, {"measurement": "Pre-emergence action against POLCO in %", "setting": "POLCO", "result": 90, "unit": "%"}]}
